Results taken from patent publication US5684039A, “Chroman-2-ylmethylamino derivatives” (American Home Products Corporation, priority 1996, dated 1997).

How the values were obtained:
α1 = α1 (no method described); assay type: binding
dopamine D2 receptor [1] = target: T1, dopamine D2 receptor (Rattus norvegicus, UniProt P61169); test: 3H-spiroperidol (Spiper.) binding, affinity for the dopamine D-2 receptor, homogenized limbic brain tissue; set-up: homogenized limbic brain tissue; from tissue; host or cells: limbic brain tissue, homogenized
dopamine autoreceptor = target: T2, dopamine autoreceptor (Rattus norvegicus, UniProt P61169); test: 3H-quinpirole (Quin.) binding, affinity for the dopamine autoreceptor, homogenized rat striatal brain tissue
T2 construct: homogenized rat striatal brain tissue; from tissue; host or cells: rat striatal brain tissue, homogenized

dopamine D2 receptor [2] = target: T1, dopamine D2 receptor; test: Ratio Ant/Ag (intrinsic activity from low-affinity/high-affinity agonist state); assay type: binding; conditions: Spiper. IC50 / Quin. IC50
Excerpt: Efforts to induce antipsychotic activity with dopamine autoreceptor agonists have been successful (Corsini et al. Adv. Biochem. […] […] et at. […] A method for determining intrinsic activity at the dopamine D2 receptor was recently reported [Lahti et al., Mol. Pharm. […] Intrinsic activity is predicted using the ratio of the "low-affinity agonist" (LowAg) state of the receptor and the "high-affinity agonist" ([…]) state of the receptor, […]. These ratios correlate with the agonist, partial agonist, and antagonist activities of a given compound, which activities characterize a compounds ability to elicit an antipsychotic effect.

T1 sequence (P61169 whole entry): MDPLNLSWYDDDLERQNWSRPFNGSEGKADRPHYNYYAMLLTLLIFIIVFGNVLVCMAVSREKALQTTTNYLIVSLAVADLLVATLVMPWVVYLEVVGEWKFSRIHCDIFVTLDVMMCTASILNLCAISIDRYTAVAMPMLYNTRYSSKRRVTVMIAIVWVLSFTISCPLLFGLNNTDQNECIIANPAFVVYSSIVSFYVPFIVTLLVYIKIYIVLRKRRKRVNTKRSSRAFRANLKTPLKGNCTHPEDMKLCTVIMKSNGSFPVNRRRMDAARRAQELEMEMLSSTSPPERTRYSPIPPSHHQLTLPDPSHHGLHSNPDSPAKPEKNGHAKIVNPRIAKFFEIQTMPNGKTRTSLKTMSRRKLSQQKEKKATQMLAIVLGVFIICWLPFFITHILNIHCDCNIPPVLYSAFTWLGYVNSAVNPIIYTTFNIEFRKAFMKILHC
T2 sequence (P61169 whole entry): as above

SMILES | IC50 (α1) | IC50 (dopamine D2 receptor [1]) | IC50 (dopamine autoreceptor) | Ratio Ant/Ag (dopamine D2 receptor [2])
CCCCCCNCC1CCc2ccc(O)cc2O1 (centres unmarked) | 221 nM | – | – | –
CCCNCC1CCc2ccc(O)cc2O1 (centres unmarked) | 1160 nM | – | – | –
CCCN(CCC)CC1CCc2ccc(O)cc2O1 (centres unmarked) | – | 8960 nM | 102 nM | 88
CCCCNCC1CCc2ccc(OC)cc2O1 (centres unmarked) | – | 23600 nM | 733 nM | 32
COc1ccc2c(c1)OC(CNCCC(C)C)CC2 (centres unmarked) | – | 26500 nM | 831 nM | 32
